Reference: patent publication US20190085024A1, “Alpha-Ketoamide Inhibitors Of Cysteine Proteases” (Phelix Therapeutics, priority 2017, published 2019)

Key:
Cathepsin L = Cathepsin L (Homo sapiens, UniProt P07711); assay: Cathepsin L enzyme assay; format: biochemical; conditions: Ki by Morrison equation; pH 5.5, substrate Z-Phe-Arg-Amc; read-out: Cat L
From the text: Two wells contained DMSO only for controls.
Velocity was converted to μM/sec.

Cathepsin B = Cathepsin B (Homo sapiens, UniProt P07858); assay: Cathepsin B enzyme assay; conditions: Cat B (μM), Ki by Morrison equation; pH 6.0, substrate Z-Phe-Arg-Amc
Calpain = Calpain enzyme assay; format: biochemical; conditions: Ki by Morrison equation; pH 7.5, 5 mM CaCl2

Cathepsin L, sequence (P07711 114-333, species assumed): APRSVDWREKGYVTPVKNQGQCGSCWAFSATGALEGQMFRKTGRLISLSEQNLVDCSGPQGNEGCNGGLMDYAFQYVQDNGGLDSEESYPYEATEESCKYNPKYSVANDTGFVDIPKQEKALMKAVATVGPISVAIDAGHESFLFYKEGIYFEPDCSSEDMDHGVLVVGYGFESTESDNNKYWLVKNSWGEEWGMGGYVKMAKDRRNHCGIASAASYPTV

| Structure (SMILES) | Ki (Cathepsin L) | Ki (Cathepsin B) | Ki (Calpain) |
| --- | --- | --- | --- |
| CCC(C)C(NC(=O)C(=O)C(C)NC(=O)C(Cc1ccccc1)NC(=O)Cc1cccc2ccccc12)C(=O)NC(C)(C)C(=O)O (stereo not shown) [PHELIX163, 12-benzyl-5-(sec-butyl)-2,2,9-trimethyl-15-(naphthalen-1-yl)-4,7,8,11,14-pentaoxo-3,6,10,13-tetraazapentadecanoic acid] | 429 nM | 0.0485 µM | – |
| CC[C@H](C)[C@H](NC(=O)C(=O)C(C)NC(=O)Cc1ccccc1)C(=O)N1CCC[C@H]1C(=O)O (stereo partly shown) [PHELIX138, (2-oxo-3-(2-phenylacetamido)butanoyl)isoleucylproline] | 69800 nM | 27.8 µM | – |
| CCC(C)C(NC(=O)C(=O)C(C)NC(=O)C(Cc1ccc(F)cc1)NC(=O)Cc1ccccc1)C(=O)NC(C)(C)C(=O)O (stereo not shown) [PHELIX172, 5-(sec-butyl)-12-(4-fluorobenzyl)-2,2,9-trimethyl-4,7,8,11,14-pentaoxo-15-phenyl-3,6,10,13-tetraazapentadecanoic acid] | 520 nM | 0.0746 µM | – |
| CC(NC(=O)C(Cc1ccccc1)NC(=O)Cc1ccccc1)C(=O)C(=O)NC(Cc1ccc2ccccc2c1)C(=O)NC(C)(C)C(=O)O (stereo not shown) [PHELIX158, 12-benzyl-2,2,9-trimethyl-5-(naphthalen-2-ylmethyl)-4,7,8,11,14-pentaoxo-15-phenyl-3,6,10,13-tetraazapentadecanoic acid] | 141 nM | 0.439 µM | – |
| CCC(C)C(NC(=O)C(=O)C(C)NC(=O)C(Cc1ccc(C(F)(F)F)cc1)NC(=O)Cc1ccccc1)C(=O)NC(C)(C)C(=O)O (stereo not shown) [PHELIX168, 5-(sec-butyl)-2,2,9-trimethyl-4,7,8,11,14-pentaoxo-15-phenyl-12-(4-(trifluoro-methyl)benzyl)-3,6,10,13-tetraazapentadecanoic acid] | 1270 nM | 0.519 µM | – |
| CCC(C)C(NC(=O)C(=O)C(C)NC(=O)C(Cc1ccc(C(C)(C)C)cc1)NC(=O)Cc1ccccc1)C(=O)NC(C)(C)C(=O)O (stereo not shown) [PHELIX167, 5-(sec-butyl)-12-(4-(tert-butyl)benzyl)-2,2,9-trimethyl-4,7,8,11,14-pentaoxo-15-phenyl-3,6,10,13-tetraazapentadecanoic acid] | 2600 nM | 0.273 µM | – |
| CCC(C)C(NC(=O)C(=O)C(C)NC(=O)C(Cc1ccc(-c2ccccc2)cc1)NC(=O)Cc1ccccc1)C(=O)NC(C)(C)C(=O)O (stereo not shown) [PHELIX165, 12-([1,1′-biphenyl]-4-ylmethyl)-5-(sec-butyl)-2,2,9-trimethyl-4,7,8,11,14-pentaoxo-15-phenyl-3,6,10,13-tetraazapentadecanoic acid] | 453 nM | 0.0736 µM | – |
| CCC(C)C(NC(=O)C(=O)C(C)NC(=O)Cc1ccccc1)C(=O)NC(C)(C)C(=O)O (stereo not shown) [PHELIX132, 2-methyl-2-(3-methyl-2-(2-oxo-3-(2-phenylacetamido)butanamido)pentanamido)propanoic acid] | 134000 nM | 702 µM | – |
| CCC(C)C(NC(=O)C(=O)C(C)(C)NC(=O)Cc1ccccc1)C(=O)NC(C)(C)C(=O)O (stereo not shown) [PHELIX139, 2-methyl-2-(3-methyl-2-(3-methyl-2-oxo-3-(2-phenylacetamido)butanamido)pentanamido)propanoic acid] | 57400 nM | 1130 µM | – |

More lines, now with the values ahead:

| Ki (Cathepsin L) | Ki (Cathepsin B) | Ki (Calpain) | Structure (SMILES) |
| --- | --- | --- | --- |
| 127 nM | 0.197 µM | – | CC(NC(=O)C(Cc1ccccc1)NC(=O)Cc1ccccc1)C(=O)C(=O)NC(Cc1ccc(C(C)(C)C)cc1)C(=O)NC(C)(C)C(=O)O [PHELIX180, (5S,12)S-12-benzyl-5-(4-(tert-butyl)benzyl)-2,2,9-trimethyl-4,7,8,11,14-pentaoxo-15-phenyl-3,6,10,13-tetraazapentadecanoic acid] |
| 461 nM | 0.157 µM | – | CC[C@H](C)[C@H](NC(=O)C(=O)C(Cc1ccccc1)NC(=O)C(Cc1ccccc1)NC(=O)Cc1ccccc1)C(=O)N1CSCC1C(=O)O (stereo partly shown) [PHELIX174, 3-((2-oxo-4-phenyl-3-(3-phenyl-2-(2-phenylacetamido)propanamido)butanoyl)isoleucyl)thiazolidine-4-carboxylic acid] |
| 881 nM | 17.8 µM | – | CCC(C)C(NC(=O)C(=O)C(C)NC(=O)C(Cc1ccccc1)NC(=O)Cc1ccccc1)C(=O)NC(C)(C)C(=O)OC (stereo not shown) [PHELIX179, methyl 12-benzyl-5-(sec-butyl)-2,2,9-trimethyl-4,7,8,11,14-pentaoxo-15-phenyl-3,6,10,13-tetraazapentadecanoate] |
| 92.2 nM | 0.0012 µM | – | CC(NC(=O)C(Cc1ccccc1)NC(=O)Cc1ccccc1)C(=O)C(=O)NC(CC1CCCCC1)C(=O)NC(C)(C)C(=O)O (stereo not shown) [PHELIX177, 12-benzyl-5-(cyclohexylmethyl)-2,2,9-trimethyl-4,7,8,11,14-pentaoxo-15-phenyl-3,6,10,13-tetraazapentadecanoic acid] |
| 108 nM | 0.0069 µM | – | CCC(C)C(NC(=O)C(=O)C(C)NC(=O)C(Cc1cccc(C)c1)NC(=O)Cc1ccccc1)C(=O)NC(C)(C)C(=O)O (stereo not shown) [PHELIX175, 5-(sec-butyl)-2,2,9-trimethyl-12-(3-methylbenzyl)-4,7,8,11,14-pentaoxo-15-phenyl-3,6,10,13-tetraazapentadecanoic acid] |
| 38.5 nM | 0.0067 µM | – | CC(NC(=O)C(Cc1ccccc1)NC(=O)Cc1ccccc1)C(=O)C(=O)N[C@@H](Cc1ccccc1)C(=O)N1CCC[C@H]1C(=O)O (stereo partly shown) [PHELIX178, (2-oxo-3-(3-phenyl-2-(2-phenylacetamido)propanamido)butanoyl)phenylalanyl proline] |
| 2.7 nM | – | 7.27 nM | CC[C@H](C)C(NC(=O)[C@H](CC(C)C)NC(=O)OCc1ccccc1)C(=O)C(=O)N[C@@H](CCCNC(=N)N)C(N)=O (stereo partly shown) [PHELIX290, benzyl (1-((1-((1-amino-5-guanidino-1-oxopentan-2-yl)amino)-4-methyl-1,2-dioxohexan-3-yl)amino)-4-methyl-1-oxopentan-2-yl)carbamate] |
| 29.1 nM | – | 44.1 nM | CCC(C)C(NC(=O)C(CC(C)C)NC(=O)OCc1ccccc1)C(=O)C(=O)NC(Cc1ccc2ccccc2c1)C(=O)N(C)C (stereo not shown) [PHELIX360, benzyl (1-((1-((1-(dimethylamino)-3-(naphthalen-2-yl)-1-oxopropan-2-yl)amino)-4-methyl-1,2-dioxohexan-3-yl)amino)-4-methyl-1-oxopentan-2-yl)carbamate] |
| 1.32 nM | – | 8.15 nM | CCC(C)C(NC(=O)C(CC(C)C)NC(=O)Cc1ccccn1)C(=O)C(=O)NCC(=O)NC(Cc1ccc2ccccc2c1)C(N)=O (stereo not shown) [PHELIX324, N-(2-((1-amino-3-(naphthalen-2-yl)-1-oxopropan-2-yl)amino)-2-oxoethyl)-4-methyl-3-(4-methyl-2-(2-(pyridin-2-yl)acetamido)pentanamido)-2-oxohexanamide] |
| 117 nM | – | 32.1 nM | CCC(C)C(NC(=O)C(CC(C)C)NC(=O)OCc1ccccc1)C(=O)C(=O)N1CC(C(=O)NCc2n[nH]c3c2CCC3)C1 (stereo not shown) [PHELIX364, benzyl (4-methyl-1-((4-methyl-1,2-dioxo-1-(3-(((1,4,5,6-tetrahydrocyclopenta[c]pyrazol-3-yl)methyl)carbamoyl)azetidin-1-yl)hexan-3-yl)amino)-1-oxopentan-2-yl)carbamate] |
| 0.73 nM | – | 2.03 nM | CCC(C)C(NC(=O)C(CC(C)C)NC(=O)OCc1ccccc1)C(=O)C(=O)NC(Cc1cccc(F)c1)C(N)=O (stereo not shown) [PHELIX359, benzyl (1-((1-((1-amino-3-(3-fluorophenyl)-1-oxopropan-2-yl)amino)-4-methyl-1,2-dioxohexan-3-yl)amino)-4-methyl-1-oxopentan-2-yl)carbamate] |
